Measured values reported in ChEMBL document CHEMBL5038655, “Development of Novel Dihydrofuro[3,4-d]pyrimidine Derivatives as HIV-1 NNRTIs to Overcome the Highly Resistant Mutant Strains F227L/V106A and K103N/Y181C” (J Med Chem, 2022).

How the values were obtained:
[1] = Selectivity index, ratio of CC50 for human MT4 cells to EC50 for antiviral activity against HIV-1 IIIB infected in human MT4 cells; type: toxicity, cell-based; conditions: MT4 cells (uninfected and infected with HIV-1 IIIB), read-out: Ratio CC50/EC50
[2] = system: Human immunodeficiency virus 1; assay: Antiviral activity against HIV-1 IIIB harboring K103N/Y181C double mutant infected in human MT4 cells assessed as protection against virus-induced cytotoxicity incubated for 5 days by MTT assay; type: functional, organism-based; conditions: Human immunodeficiency virus 1, IIIB, MT4, 120 h
[3] = Cytotoxicity against human MT4 cells assessed as reduction in cell viability incubated for 5 days by MTT assay; type: toxicity, cell-based; conditions: time 5 day
[4] = system: Human immunodeficiency virus 1; assay: Antiviral activity against HIV-1 IIIB infected in human MT4 cells assessed as protection against virus-induced cytotoxicity incubated for 5 days by MTT assay; type: functional, organism-based; conditions: Human immunodeficiency virus 1, IIIB, MT4, 120 h
[5] = target: Human immunodeficiency virus type 1 reverse transcriptase (Human immunodeficiency virus 1, UniProt Q72547); assay: Inhibition of wild type HIV-1 reverse transcriptase using biotin-labelled dNTPs as substrate incubated for 2 hrs by ELISA
[6] = Selectivity index, ratio of CC50 for human MT4 cells to EC50 for antiviral activity against HIV-1 IIIB harboring K103N/Y181C double mutant infected in human MT4 cells; type: toxicity, cell-based; conditions: read-out: Ratio CC50/EC50
[7] = system: Human immunodeficiency virus 1; assay: Antiviral activity against HIV-1 harboring reverse transcriptase E138K mutant infected in human MT4 cells assessed as protection against virus-induced cytopathic effect incubated for 5 days by MTT assay; conditions: Human immunodeficiency virus 1, MT4, 120 h
[8] = system: Human immunodeficiency virus 1; assay: Antiviral activity against HIV-1 harboring reverse transcriptase F227L/V106A mutant infected in human MT4 cells assessed as protection against virus-induced cytopathic effect incubated for 5 days by MTT assay; conditions: Human immunodeficiency virus 1, MT4, 120 h
[9] = system: Human immunodeficiency virus 1; assay: Antiviral activity against HIV1 L1001 infected in human MT4 cells assessed as protection against virus-induced cytopathic effect incubated for 5 days by MTT assay; type: functional, organism-based; conditions: Human immunodeficiency virus 1, L1001, MT4, 120 h
[10] = system: Human immunodeficiency virus 1; assay: Antiviral activity against HIV-1 harboring reverse transcriptase Y181C mutant infected in human MT4 cells assessed as protection against virus-induced cytopathic effect incubated for 5 days by MTT assay; conditions: Human immunodeficiency virus 1, MT4, 120 h
[11] = system: Human immunodeficiency virus 1; assay: Antiviral activity against HIV-1 harboring reverse transcriptase K103N mutant infected in human MT4 cells assessed as protection against virus-induced cytopathic effect incubated for 5 days by MTT assay; conditions: Human immunodeficiency virus 1, MT4, 120 h
[12] = system: Human immunodeficiency virus 1; assay: Antiviral activity against HIV-1 harboring reverse transcriptase Y188L mutant infected in human MT4 cells assessed as protection against virus-induced cytopathic effect incubated for 5 days by MTT assay; conditions: Human immunodeficiency virus 1, MT4, 120 h
[13] = Selectivity index, ratio of CC50 for human MT4 cells to EC50 for antiviral activity against HIV-1 IIIB; type: toxicity; conditions: read-out: Ratio CC50/EC50
[14] = system: Human immunodeficiency virus 1; assay: Antiviral activity against HIV-1 IIIB harboring K103N/Y181C double mutant; type: functional, organism-based; conditions: Human immunodeficiency virus 1, IIIB
[15] = Cytotoxicity against human MT4 cells; type: toxicity, cell-based
[16] = Selectivity index, ratio of CC50 for human MT4 cells to EC50 for antiviral activity against HIV-1 IIIB harboring K103N/Y181C double mutant; type: toxicity; conditions: read-out: Ratio CC50/EC50
[17] = system: Human immunodeficiency virus 1; assay: Antiviral activity against HIV-1 IIIB; type: functional, organism-based; conditions: Human immunodeficiency virus 1, IIIB
[18] = Aqueous solubility of the compound at pH 7.0 by HPLC analysis; type: physicochemical; conditions: buffer
[19] = Aqueous solubility of the compound at pH 7.4 by HPLC analysis; type: physicochemical; conditions: buffer

Q: Which selectivity ratio [1] does the source give for `Cc1cc(/C=C/C#N)cc(C)c1Oc1nc(NC2CCN(c3ccc(S(N)(=O)=O)cc3)CC2)nc2c1COC2` here?
A: 6530

Q: What about the EC50 [2] of the same compound?
A: 1300 nM

Q: What about the CC50 at 120 h [3] of the same compound?
A: 27300 nM

Q: And the EC50 [4]?
A: 4.18 nM

Q: And the IC50 [5]?
A: 60 nM

Q: And the selectivity ratio [6]?
A: 23

Q: For `Cc1cc(/C=C/C#N)cc(C)c1Oc1nc(Nc2ccc(N3CCN(S(C)(=O)=O)CC3)cc2)nc2c1COC2`, which IC50 [5] is on record?
A: 180 nM

Q: With `Cc1cc(/C=C/C#N)cc(C)c1Oc1nc(Nc2ccc(C3CCCN(S(N)(=O)=O)CC3)cc2)nc2c1COC2` (stereo unspecified) as the compound, how does the IC50 [5] read?
A: 90 nM

Q: What does the source list for `Cc1cc(/C=C/C#N)cc(C)c1Oc1nc(NC2CCN(c3ccc(NS(N)(=O)=O)cc3)CC2)nc2c1COC2`?
A: EC50 [7]: 34.6 nM; selectivity ratio [1]: 1370; EC50 [2]: 88.9 nM; CC50 at 120 h [3]: 23000 nM; EC50 [8]: 19.9 nM; EC50 [4]: 16.8 nM; EC50 [9]: 1250 nM; EC50 [10]: 46.5 nM; IC50 [5]: 120 nM; selectivity ratio [6]: 260; EC50 [11]: 13.1 nM; EC50 [12]: 141 nM

Q: With `Cc1cc(/C=C/C#N)cc(C)c1Oc1nc(NC2CCN(Cc3ccc(C(F)(F)F)cc3)CC2)nc2c1COC2` as the compound, how does the EC50 [7] read?
A: 129 nM

Q: And the selectivity ratio [1]?
A: 256

Q: And the EC50 [2]?
A: 190 nM

Q: What about the CC50 at 120 h [3] of the same compound?
A: 5010 nM

Q: What about the EC50 [8] of the same compound?
A: 199 nM

Q: And the EC50 [4]?
A: 19.5 nM

Q: And the EC50 [9]?
A: 34.5 nM

Q: What about the EC50 [10] of the same compound?
A: 65.6 nM

Q: What about the IC50 [5] of the same compound?
A: 360 nM

Q: What about the selectivity ratio [6] of the same compound?
A: 26

Q: And the EC50 [11]?
A: 30.1 nM

Q: What about the EC50 [12] of the same compound?
A: 282 nM

Q: Which results are given for `Cn1c(Cn2ccc(C(F)(F)F)c(Oc3cc(Cl)cc(C#N)c3)c2=O)n[nH]c1=O` [DORAVIRINE]?
A: selectivity ratio [13]: > 21800; EC50 [14]: 14.5 nM; CC50 [15]: > 293000 nM; selectivity ratio [16]: > 20100; EC50 [17]: 13.3 nM

Q: What does the source list for `Cc1cc(/C=C/C#N)cc(C)c1Oc1nc(NC2CCN(c3ccc(S(C)(=O)=O)cc3)CC2)nc2c1COC2`?
A: selectivity ratio [1]: 16500; EC50 [2]: 1200 nM; CC50 at 120 h [3]: 104000 nM; EC50 [4]: 6.3 nM; IC50 [5]: 70 nM; selectivity ratio [6]: 87

Q: Which IC50 [5] does the source give for `Cc1cc(/C=C/C#N)cc(C)c1Oc1nc(Nc2ccc(CN3CCN(S(N)(=O)=O)CC3)cc2)nc2c1COC2` here?
A: 280 nM

Q: For `Cc1cc(/C=C/C#N)cc(C)c1Oc1nc(NC2CCN(Cc3ccc(S(N)(=O)=O)cc3)CC2)nc2c1COC2`, which EC50 [7] is on record?
A: 10.3 nM

Q: And the selectivity ratio [1]?
A: 2360

Q: What about the EC50 [2] of the same compound?
A: 24.7 nM

Q: What about the CC50 at 120 h [3] of the same compound?
A: 14700 nM

Q: And the EC50 [8]?
A: 11.9 nM

Q: And the EC50 [4]?
A: 6.24 nM

Q: What about the EC50 [9] of the same compound?
A: 5.12 nM

Q: What about the EC50 [10] of the same compound?
A: 7.71 nM

Q: And the IC50 [5]?
A: 140 nM

Q: What about the selectivity ratio [6] of the same compound?
A: 595

Q: What about the EC50 [11] of the same compound?
A: 5.97 nM

Q: What about the EC50 [12] of the same compound?
A: 38 nM

Q: Which IC50 [5] does the source give for `Cc1cc(/C=C/C#N)cc(C)c1Oc1nc(Nc2ccc(N3CCCC(NS(N)(=O)=O)C3)cc2)nc2c1COC2` (stereo unspecified) here?
A: 780 nM

Q: What does the source list for `Cc1cc(/C=C/C#N)cc(C)c1Oc1nc(NC2CCN(Cc3ccc([N+](=O)[O-])cc3)CC2)nc2c1COC2`?
A: EC50 [7]: 21.7 nM; selectivity ratio [1]: 801; EC50 [2]: 65 nM; CC50 at 120 h [3]: 6670 nM; EC50 [8]: 60.5 nM; EC50 [4]: 8.32 nM; EC50 [9]: 10.4 nM; EC50 [10]: 26.8 nM; IC50 [5]: 180 nM; selectivity ratio [6]: 103; EC50 [11]: 7.78 nM; EC50 [12]: 94 nM

Q: Which IC50 [5] does the source give for `Cc1cc(/C=C/C#N)cc(C)c1Oc1nc(Nc2ccc(N3CCC(NS(C)(=O)=O)CC3)cc2)nc2c1COC2` here?
A: 460 nM

Q: For `Cc1cc(C#N)cc(C)c1Oc1nc(Nc2ccc(C#N)cc2)nc(N)c1Br` [ETRAVIRINE], which EC50 [7] is on record?
A: 15.4 nM

Q: And the selectivity ratio [1]?
A: > 1170

Q: And the EC50 [2]?
A: 72.3 nM

Q: And the CC50 at 120 h [3]?
A: > 4590 nM

Q: And the EC50 [8]?
A: 21.4 nM

Q: And the selectivity ratio [6]?
A: > 64

Q: What about the solubility [18] of the same compound?
A: < 1 µg/mL

Q: And the solubility [19]?
A: < 1 µg/mL

Q: What about the EC50 [11] of the same compound?
A: 4.65 nM

Q: What about the EC50 [12] of the same compound?
A: 48.7 nM

Q: For `Cc1cc(/C=C/C#N)cc(C)c1Oc1nc(Nc2ccc(CN3CCN(S(C)(=O)=O)CC3)cc2)nc2c1COC2`, which IC50 [5] is on record?
A: 150 nM
